In series [1] the test system is Carrageenin edema in rat's paw. The experiment in a line: Carrageenin Edema Test in Rat's Paw (anti-inflammatory activity, Table 1). Type of series: in vivo. To be noted: 100 mg/kg oral, hydrochloride, rat. As for the experimental part:
An anti-inflammatory activity was measured by orally administering 100 mg/kg of a hydrochloride of the indazole derivative of this invention as set forth in Table 1 to an animal in accordance with the standard method of Carrageenin Edema Test in Rat's Paw described in C. A. Winter et al., Proc. Soc. Exp. Biol. Med., 111, 544 (1962).
A general note: Carrageenan injected into the paw causes an acute inflammation.

The nature of another series: in vivo. To be noted: mouse, ip, intraperitoneal, hydrochloride, male ddy mice.
In series [2] the test system is Bradykinin inducing edema. The experiment in a line: Anti-edema test, bradykinin inducing edema (Table 2). Type of series: in vivo, rat. The conditions noted are these: Dose: 10 mg/kg, oral, after 30 minutes. The procedure:
(§1) […] A. Winter et al., NonSteroidal Anti-inflammatory Drugs. As an edema inducing substance, bradykinin, histamine and serotonin were employed. […] Bradykinin inducing edema inhibition and histamine inducing edema inhibition were measured after 30 minutes of the administration, and serotonin inducing edema inhibition was measured after 3 hours of the administration.

The test system of a further series is Histamine inducing edema. The experiment in a line: Anti-edema test, histamine inducing edema (Table 2). Type of series: in vivo, rat. To be noted: Dose: 10 mg/kg, oral, after 30 minutes. The procedure:
as §1

The next series relates to Serotonin inducing edema. The experiment in a line: Anti-edema test, serotonin inducing edema (Table 2). To be noted: Dose: 10 mg/kg, oral, after 3 hours. Type of series: in vivo, rat. As for the experimental part: as §1

The structures appear in SMILES notation.

By inhibition in vivo is commonly meant the share of the control response that was lost under treatment. One may read the LD50 as the dose at which mortality reaches 50%. The low end stands for greater toxicity, the high end for lower toxicity.

The molecule `CCN(CC)CCCn1nc(NCCC(C)N2CCCCC2)c2cc(O)ccc21` (centres unmarked) [(129), 1-(3-Diethylaminopropyl)-3-(3-piperidinobutylamino)-5-hydroxyindazole] returned an inhibition in vivo at 100 mg/kg in series [1] of 27%. Moreover, the LD50 in “in vivo” was found to be 240 mg/kg.

Turning to `CCN(CC)CCCNc1nn(CCCN2CCCCC2)c2ccc(O)cc12` [(130), 1-(3-Piperidinopropyl)-3-(3-diethylaminopropylamino)-5-hydroxyindazole], the inhibition in vivo at 100 mg/kg in series [1] was 29%. This molecule also yielded an LD50 in the series “in vivo” of 211 mg/kg.

For the molecule `Oc1ccc2c(c1)c(NCCCN1CCCCC1)nn2CCCN1CCCCC1` [(131), 1-(3-Piperidinopropyl)-3-(3-piperidinopropylamino)-5-hydroxyindazole], in series [1], the inhibition in vivo at 100 mg/kg was 28%. In “in vivo”, this molecule came in with an LD50 of 298 mg/kg.

As for `Oc1ccc2c(c1)c(NCCCCCCN1CCCCC1)nn2CCCN1CCCCC1` [(132), 1-(3-Piperidinopropyl)-3-(6-piperidinohexylamino)-5-hydroxyindazole], in series [1], the inhibition in vivo at 100 mg/kg worked out at 21%. This molecule gave a median lethal dose (LD50) in “in vivo” of 310 mg/kg.

Consider `CC(CCNc1nn(CCCN2CCCCC2)c2ccc(O)cc12)N1CCCCC1` (centres unmarked) [(133), 1-(3-Piperidinopropyl)-3-(3-piperidinobutylamino)-5-hydroxyindazole], for which, in series [1], 100 mg/kg produced 28% inhibition in vivo. This molecule came in with an LD50 in “in vivo” of 330 mg/kg.

In series [1], `CCN(CC)CCCNc1nn(CCC(C)N2CCCCC2)c2ccc(O)cc12` (centres unmarked) [(134), 1-(3-Piperidinobutyl)-3-(3-diethylaminopropylamino)-5-hydroxyindazole] showed an inhibition in vivo at 100 mg/kg of 29%. The LD50 in “in vivo” came to 349 mg/kg.

As to `CC(CCn1nc(NCCCN2CCCCC2)c2cc(O)ccc21)N1CCCCC1` (centres unmarked) [(135), 1-(3-Piperidinobutyl)-3-(3-piperidinopropylamino)-5-hydroxyindazole], the inhibition in vivo at 100 mg/kg in series [1] was 28%. In the series “in vivo”, this molecule came in with a 50% lethal dose (LD50) of 298 mg/kg.

Regarding `CC(C)CC(CCNc1nn(CCC(C)N2CCCCC2)c2ccc(O)cc12)N1CCCCC1` (centres unmarked) [(136), 1-(3-Piperidinobutyl)-3-(3-piperidino-5-methylhexylamino)-5-hydroxyindazole], the inhibition in vivo at 100 mg/kg in series [1] is 21%. The median lethal dose (LD50) in “in vivo” worked out at 241 mg/kg.

`CC(CCNc1nn(CCC(C)N2CCCCC2)c2ccc(O)cc12)N(C)C` (centres unmarked) [(137), 1-(3-Piperidinobutyl)-3-(3-dimethylaminobutylamino)-5-hydroxyindazole] registered an inhibition in vivo at 100 mg/kg in series [1] of 21%. Further, the LD50 in the series “in vivo” turned out to be 258 mg/kg.

With `CCN(CC)CCCNc1nn(CCC(C)N(C)C)c2ccc(O)cc12` (centres unmarked) [(138), 1-(3-Dimethylaminobutyl)-3-(3-diethylaminopropylamino)-5-hydroxyindazole], 100 mg/kg produced 29% inhibition in vivo in series [1]. In “in vivo”, this molecule gave an LD50 of 213 mg/kg.

With `CC(CCn1nc(NCCCN2CCCCC2)c2cc(O)ccc21)N(C)C` (centres unmarked) [(139), 1-(3-Dimethylaminobutyl)-3-(3-piperidinopropylamino)-5-hydroxyindazole], the inhibition in vivo at 100 mg/kg in series [1] was determined as 28%. This molecule also came in with a 50% lethal dose (LD50) in “in vivo” of 249 mg/kg.

As for `CC(CCn1nc(NCCC(C)N2CCCCC2)c2cc(O)ccc21)N(C)C` (centres unmarked) [(140), 1-(3-Dimethylaminobutyl)-3-(3-piperidinobutylamino)-5-hydroxyindazole], testing at 100 mg/kg in series [1] gave an inhibition in vivo of 27%. For the same molecule, in “in vivo”, the LD50 turned out to be 313 mg/kg.

`CCN(CC)C(CCNc1nn(CCC(C)N(C)C)c2ccc(O)cc12)CC(C)C` (centres unmarked) [(141), 1-(3-Dimethylaminobutyl)-3-(3-diethylamino-5-methylhexylamino)-5-hydroxyindazole]: in series [1], the inhibition in vivo at 100 mg/kg stood at 21%. This molecule also came in with an LD50 in “in vivo” of 340 mg/kg.

For `Oc1ccc2c(c1)c(NCCCN1CCCCCC1)nn2CCCN1CCCC1` [(142), 1-(3-Pyrrolidinopropyl)-3-(3-homopiperidinopropylamino)-5-hydroxyindazole], in series [1], the inhibition in vivo at 100 mg/kg is 28%. Also, the median lethal dose (LD50) in the series “in vivo” is 349 mg/kg.

`CC1CCCCN1CCCNc1nn(CCCN2CCCC2)c2ccc(O)cc12` (centres unmarked) [(143), 1-(3-Pyrrolidinopropyl)-3-[3-(2-methylpiperidino)propylamino]-5-hydroxyindazole] registered an inhibition in vivo at 100 mg/kg in series [1] of 30%. In the series “in vivo”, this molecule displayed an LD50 of 291 mg/kg.

With `CN1CCN(CCCNc2nn(CCCN3CCCC3)c3ccc(O)cc23)CC1` [(144), 1-(3-Pyrrolidinopropyl)-3-[3-(4-methylpiperazino)propylamino]-5-hydroxyindazole], the inhibition in vivo at 100 mg/kg in series [1] came out at 26%. Also, the median lethal dose (LD50) in the series “in vivo” is 281 mg/kg.

Regarding `CCN(CC)CCCNc1nn(CCCN2CCOCC2)c2ccc(O)cc12` [(145), 1-(3-Morpholinopropyl)-3-(3-diethylaminopropylamino)-5-hydroxyindazole], the inhibition in vivo at 100 mg/kg in series [1] was 30%. Moreover, the LD50 in “in vivo” worked out at 211 mg/kg.

`CC1CCCC(C)N1CCCNc1nn(CCCN2CCOCC2)c2ccc(O)cc12` (centres unmarked) [(146), 1-(3-Morpholinopropyl)-3-[3-(2,6-dimethylpiperidino)propylamino]-5-hydroxyindazole] gave an inhibition in vivo at 100 mg/kg in series [1] of 32%. For the same molecule, the 50% lethal dose (LD50) in the series “in vivo” amounted to 198 mg/kg.

In turn, `Oc1ccc2c(c1)c(NCCCN1CCC(Cl)CC1)nn2CCCN1CCOCC1` [(147), 1-(3-Morpholinopropyl)-3-[3-(4-chloropiperidino)propylamino]-5-hydroxyindazole] showed an inhibition in vivo at 100 mg/kg in series [1] of 29%. In “in vivo”, this molecule gave a 50% lethal dose (LD50) of 181 mg/kg.

`Oc1ccc2c(c1)c(NCCCN1CCC(O)CC1)nn2CCCN1CCOCC1` [(148), 1-(3-Morpholinopropyl)-3-[3-(4-hydroxypiperidino)propylamino]-5-hydroxyindazole]: 100 mg/kg produced 30% inhibition in vivo in series [1]. In addition, the median lethal dose (LD50) in “in vivo” was found to be 245 mg/kg.

In series [1], `Nc1nn(CCCN2CCOCC2)c2ccccc12` [(149), 1-(3-Morpholinopropyl)-3-aminoindazole] yielded an inhibition in vivo at 100 mg/kg of 50%. The LD50 in the series “in vivo” came out at 261 mg/kg.

Turning to `CC(CCn1nc(N)c2ccccc21)N1CCOCC1` (centres unmarked) [(150), 1-(3-Morpholinobutyl)-3-aminoindazole], at 100 mg/kg the inhibition in vivo in series [1] was 39%. For the same molecule, the LD50 in “in vivo” was found to be 270 mg/kg.

In turn, `Nc1nn(CCN2CCOCC2)c2ccccc12` [(151), 1-(2-Morpholinoethyl)-3-aminoindazole] had an inhibition in vivo at 100 mg/kg in series [1] of 48%. This molecule also gave an LD50 in “in vivo” of 290 mg/kg.

`CC(CCNc1n[nH]c2ccccc12)N1CCOCC1` (centres unmarked) [(153), 3-(3-Morpholinobutylamino)indazole] returned an inhibition in vivo at 100 mg/kg in series [1] of 51%. In addition, in the series “in vivo”, the LD50 was 331 mg/kg.

Molecule `c1ccc2c(NCCN3CCOCC3)n[nH]c2c1` [(154), 3-(2-Morpholinoethylamino)indazole] yielded an inhibition in vivo at 100 mg/kg in series [1] of 50%. Besides, the LD50 in “in vivo” is 351 mg/kg.

In series [1], `CCN(CC)CCCNc1nn(CCCN2CCOCC2)c2ccccc12` [(155), 1-(3-Morpholinopropyl)-3-(3-diethylaminopropylamino)indazole] gave an inhibition in vivo at 100 mg/kg of 30%. The molecule further came in with an LD50 in “in vivo” of 291 mg/kg.

For the molecule `CC1CCCC(C)N1CCCNc1nn(CCCN2CCOCC2)c2ccccc12` (centres unmarked) [(156), 1-(3-Morpholinopropyl)-3-[3-(2,6-dimethylpiperidino)propylamino]indazole], in series [1], at 100 mg/kg the inhibition in vivo was 32%. Further, the LD50 in the series “in vivo” came to 301 mg/kg.

For `ClC1CCN(CCCNc2nn(CCCN3CCOCC3)c3ccccc23)CC1` [(157), 1-(3-Morpholinopropyl)-3-[3-(4-chloropiperidino)propylamino]indazole], in series [1], 100 mg/kg produced 29% inhibition in vivo. The same molecule displayed an LD50 in “in vivo” of 251 mg/kg.

For the molecule `OC1CCN(CCCNc2nn(CCCN3CCOCC3)c3ccccc23)CC1` [(158), 1-(3-Morpholinopropyl)-3-[3-(4-hydroxypiperidino)propylamino]indazole], 100 mg/kg produced 30% inhibition in vivo in series [1]. Moreover, the LD50 in “in vivo” came to 288 mg/kg.

Consider `CCCCN(CCCC)CCCn1nc(NCCCN2CCOCC2)c2ccccc21` [(159), 1-(3-Di-n-butylaminopropyl)-3-(3-morpholinopropylamino)indazole], for which the inhibition in vivo at 100 mg/kg in series [1] came to 41%. The same molecule had an LD50 in the series “in vivo” of 191 mg/kg.

Regarding `c1ccc2c(c1)c(NCCCN1CCOCC1)nn2CCCN1CCCCC1` [(160), 1-(3-Piperidinopropyl)-3-(3-morpholinopropylamino)indazole], 100 mg/kg produced 39% inhibition in vivo in series [1]. The molecule also yielded an LD50 in the series “in vivo” of 244 mg/kg.

As to `Nc1n[nH]c2cccc(O)c12` [(161), 3-Amino-4-hydroxyindazole], in series [1], the inhibition in vivo at 100 mg/kg worked out at 41%. Further, the LD50 in “in vivo” stood at 211 mg/kg.

On to `Nc1n[nH]c2cc(O)ccc12` [(163), 3-Amino-6-hydroxyindazole], for which testing at 100 mg/kg in series [1] gave an inhibition in vivo of 43%. In “in vivo”, the LD50 was 252 mg/kg.

The molecule `Nc1n[nH]c2c(O)cccc12` [(164), 3-Amino-7-hydroxyindazole] registered an inhibition in vivo at 100 mg/kg in series [1] of 42%. In the series “in vivo”, this molecule registered an LD50 of 231 mg/kg.

For `Nc1n[nH]c2ccc(I)cc12` [(165), 3-Amino-5-iodoindazole], in series [1], testing at 100 mg/kg gave an inhibition in vivo of 55%. In the series “in vivo”, the LD50 was found to be 242 mg/kg.

The molecule `Nc1n[nH]c2c(I)cccc12` [(166), 3-Amino-7-iodoindazole] gave an inhibition in vivo at 100 mg/kg in series [1] of 50%. The same molecule gave a median lethal dose (LD50) in “in vivo” of 198 mg/kg.

`Nc1cc(N)c2[nH]nc(N)c2c1` [(167), 3,5,7-Triaminoindazole] showed an inhibition in vivo at 100 mg/kg in series [1] of 85%. The molecule further came in with an LD50 in the series “in vivo” of 171 mg/kg.

Regarding `CC(C(=O)O)c1cccc(C(=O)c2ccccc2)c1` (centres unmarked) [Compound C-6, 3-benzoylhydratropic acid], the “Bradykinin inducing edema Inhibition” value in series [2] was determined as 1.6%. The “Histamine inducing edema Inhibition” value in the series with Histamine inducing edema worked out at 2.9%. The “Serotonin inducing edema Inhibition” value in the series on Serotonin inducing edema is 5.2%.
